# Experimental data published in patent US20220249525A1, “Fatty Acid Compounds for Prevention and Treatment of Neurodegenerative Disorders” (T OMEGA AS, priority 2019, published 2022).
# Structures can show the parent of a compound that is named as a salt.
# Columns and labels:
# [1] = test system: HuH-7 cells; test: WST-1 cell viability assay in HuH-7 cells; type: cell-based; conditions: 2 days
# Procedure: (§1) The fatty acids (FAs) TTA, tr-TTA, N-TTA, tr-N-TTA and (PA) were complexed with FBS following the same procedure, differing only in final stock concentration, due to variation in solubility. Approximately 0.07 g of FA was weighed in a 10 ml sterile serum tube (BD Vacutainer®, catalog no. 368430) and dissolved in sterile filtrated 0.1 M sodium hydroxide (NaOH) of a volume giving 25 mM FA, controls without FA were made, containing only NaOH and FBS. A syringe (Sterican®, catalog no. 4657577) was pierced through the rubber cap of the serum tube, and the tube was placed in an 80° C. water bath until the FAs were dissolved. Each FA-solution was then diluted in inactivated FBS to stock concentration 1 mM (N-TTA, tr-N-TTA), and 2 mM by adding the FA to a volume of 100% FBS after heating the FBS to 45° C. in a water bath. The transfer of FA to FBS had to be executed controlled and swiftly to avoid the formation of precipitates. If any precipitates in the solution were visible, the FA and a new volume of FBS were reheated, and the procedure performed again. Following successful complexation, the stock solutions were stored at −20° C. in 1 ml aliquots (CryoPure tube, Sarstedt AG & Co, Nümbrecht, Germany).
# (§2) The WST-1 cell proliferation assay was performed using the kit from Roche (table 4.2.) and its accompanying procedure (version 16, February 2011) (134). The number of cells seeded to each well in the 96-well plates (Corning Inc., catalog no. 353072) varied depending on the treatment time and cell type (table 3.).
# (§3) Cell suspension and medium were then transferred to each well in a volume of 100 μl in total. Subsequently, the plates were incubated for 24 hours to make the cells settle. The next day, 100 μl with FA complexed with FBS or diluted in DMSO was added to row A or B in the 96-well plate to give a defined concentration. The solution was then mixed with a pipette, and 100 μl of the medium with FA was transferred to the next well in the same column, mixed by pipetting up and down at least five times before 100 μl was transferred again to the next well in the column. This procedure was repeated until the second last, or last well in each column was reached, making a series of two-fold dilution of the FAs in the cell medium. Two parallels were performed for every treatment per run. After the addition of FAs, the plates were incubated for 24-96 hours depending on the length of the treatment.
# (§4) Following the FA-treatment, the cells were studied under a microscope to ensure that visual observations matched the measured absorbance and cell activity in the assay. Subsequently, 10 μl WST-1 reagent was added to each well, and the plates were incubated for 3 hours. Due to high activity in the HuH-7 cell line, the WST-1 reagent was diluted 1:1 with PBS. Before the measurement of absorbance, the plates were placed on a shaker for 1 minute ensuring thoroughly mixing of the wells. The plates were then put straight into the spectrophotometer (SpectraMax Plus 384 Microplate Reader, Molecular Devices Corporation, San Jose, Calif., USA) to perform the measurements. The accompanying software was used (SoftMax Pro, Molecular Devices Corporation, San Jose, Calif., USA) to obtain the results. The absorbance of the samples was measured at 450 nm, and the reference wavelength was set to 650 nm. For each well, the measured absorption at 650 nm was subtracted from the absorption at 450 nm. The measured absorbance for the treated cells was then compared to the controls (blank) containing only cells and growth medium.
# [2] = test system: SH-SY5Y cells; test: WST-1 cell viability assay in SH-SY5Y cells; type: cell-based; conditions: 4 days
# Procedure: as §1, §2, §3
# as §4, with “The accompanying software was used (SoftMax Pro, Molecular Devices Corporation, San Jose, Calif., USA) to obtain the results.” left out
# [3] = test system: SH-SY5Y cells; test: Gene expression (qPCR) in SH-SY5Y cells treated with fatty acids; type: cell-based
# Procedure: (§5) Cells from both cell lines were obtained and counted as previously mentioned. After cell counting, the cells were seeded to 6-well plates (Corning Inc., catalog no. 353046) with a density dependent on total treatment time and cell line. The cells were seeded in 3-4 ml medium and placed in the incubator for approximately 24 hours for the cells to settle. Following the 24 hours, the FAs were thawed in room temperature, the cell medium was aspirated off, and a new, exact volume was added to each well, depending on the final concentration of FA or control. Before the addition of FAs, the FA-solutions were mixed by pipetting up and down several times. The FAs were then added with an exact volume to the wells giving a total volume of 3 ml or 4 ml depending on treatment time, yielding the target concentration of FA in well. After the addition of FA to one well, the solution was mixed by carefully rotating the 6-well plate. The same procedure was followed for all the wells, differing only in FA or control added, and the ratio of medium and FA depending on treatment dose. During cell treatment, the plates were incubated under the same conditions as previously mentioned. PBS was placed between the wells to reduce liquid-loss due to evaporation. After treatment and incubation for 24-96 hours, the procedure of RNA purification was followed.
# (§6) Purification of total RNA from treated HuH-7- and SH-SY5Y cells was done following the protocol “Purification of Total RNA from Animal Cells using Spin Technology” described in the RNeasy Mini Handbook (fourth edition, June 2012) with some modifications. The RNeasy Mini Kit was used.
# (§7) Frozen RNA samples were thawed on ice or used directly after the RNA purification protocols. All samples from the cell lines were diluted with nuclease-free water to 50 ng/μl, and all samples from brain tissue were diluted to 200 ng/μl prior to cDNA synthesis. UHRR and UMRR were initially at 50 ng/μ1 (table 4.3.). The reactants (table 4.6.) used in the RT-mix were thawed on ice and mixed following the protocol “High Capacity cDNA Reverse Transcription Kits” (Applied Biosystems, June 2010) (153). From the master mix containing the total volume of the mixed reactants, 10 μl was added to each sample tube placed on ice already containing 10 μl of the diluted RNA. The samples with a total volume of 20 μl were mixed by pipetting up and down several times. In addition, samples without reverse transcriptase (−RT) were made, using nuclease-free water to replace the RT volume. The tubes were placed on ice until they were loaded to the GeneAmp* PCR system 2700 (Applied Biosystems, Foster City, Calif., USA) and the program described in table 4.7. was used. After the procedure, all samples were diluted to 10 ng/μl by the addition of nuclease-free water and placed for storage at 4° C. until further use.
# The mix for the samples (and standard curves) was made using TaqMan Gene Expression Master Mix (table 4.8.), probes specific for the genes in question, and nuclease-free water. −RT and NTC samples were always used in the experiments. […] The prepared samples were placed in the PCR cycler (ABI PRISM 7900HT Sequence Detection System, Applied Biosystems) for quantification, using the 9600 Emulation Thermal Cycler Protocol (table 4.9.) in the software SDS 2.3 (Applied Biosystems, Foster City, Calif., USA).
# (§8) When performing the qPCR reactions, all samples were analyzed in triplicates, and the mean value was used in further analysis. […]
# [4] = test system: HuH-7 cells; test: Gene expression (qPCR) in HuH-7 cells treated with fatty acids; type: cell-based
# Procedure: as §5, §6, §7
# The mix for the samples (and standard curves) was made using TaqMan Gene Expression Master Mix (table 4.8.), probes specific for the genes in question, and nuclease-free water. −RT and NTC samples were always used in the experiments. The master mix for each gene was made according to table 4.8. and added to tubes together with the cDNA. The tubes were vortexed and centrifuged briefly before the samples were added to a 384-well plate (Sarstedt AG & CO, catalog no. 72.1984.202) with the use of a pipette. For every sample, three parallels of 9 μl were used. After the addition of all the samples to the plate, a plastic cover (Sarsted AG & CO, catalog no. 95.1994) was used to seal the plate before centrifuging it for 2 minutes at 700 g. The prepared samples were placed in the PCR cycler (ABI PRISM 7900HT Sequence Detection System, Applied Biosystems) for quantification, using the 9600 Emulation Thermal Cycler Protocol (table 4.9.) in the software SDS 2.3 (Applied Biosystems, Foster City, Calif., USA).
# as §8
# [5] = test system: MOLM-13 human acute leukemia cells; test: WST-1 viability of MOLM-13 cells; type: cell-based; conditions: for Abs450 nm (WST-1 viability): complexed to BSA
# Procedure: MOLM-13 suspension cells were diluted and added to 96-well plates (15.000 cells/well).
# The modified fatty acids TTA, tr-TTA, TDG (TGH) and tr-TDG (tr-TGH) were complexed to bovine serum albumin (BSA), and 10-fold dilutions of the fatty acids or BSA control were added to the wells in duplicate. Two plates were run in parallel, and WST-1 was added to the cells after 48 (plate 1) and 72 hours (plate 2). Absorbance at 450 nm measured to assess viability of the cells.
# [6] = 4 week high-fat diet study, body weight, adipose tissue, plasma glucose and cholesterol; type: in vivo, C57BL/6 mice; conditions: mice, N-TTA 750 mg/kg or triple-N-TTA 350 mg/kg body weight, 4 weeks
# Procedure: This animal study was conducted according to the Guidelines for the Care and Use of Experimental Animals, and the protocol was approved by the Norwegian Food Authorities. 7 to 8-weeks old male C57BL/6 mice, were obtained from Janvier Labs. After one week of acclimatization, they were divided into 3 groups of 7 animals. One group was fed a control high-fat (25 w/v) diet while the two remaining groups were fed a high-fat diet supplemented with either N-TTA (750 mg/kg body weight) or triple-N-TTA (350 mg/kg body weight). After 4 weeks of feeding, the mice were anaesthetized with Isofluorane (Forane, Abbot Laboratories Ltd, Illinois, USA) inhalation under fasting conditions, and blood and liver samples were collected. […]
# Glucose and lipids in plasma was measured on the Hitachi 917 system (Roche Diagnostics, GmbH, Mannheim, Germany) using kits from Roche Diagnostics or DiaSys.
# [7] = 125 μM complexed with FBS, 24 hours
# [8] = 25 μM dissolved in DMSO, 4 days
structure (smiles),measurement,setting,value
CCCCCCCCCCCCCCCC(=O)O [PA],WST-1 activity compared to untreated cells,"[1]; 62.5 μM, complexed with FBS",~150%
same,WST-1 activity,[2]; 500 μM,the same as the control
same,WST-1 activity,[2]; concentrations up to 250 μM,stimulated activity
same,relative gene expression of CPT-2 vs control,[3]; [7],No change
same,relative gene expression of CYCS vs control,[3]; [7],No change
same,relative gene expression of TFAM vs control,[3]; [7],No change
same,relative gene expression of UCP3 vs control,[3]; [7],No change
same,CYCS gene expression vs FBS-control,"[3]; additional treatments, 4 days, reference 18 S",small decrease
same,relative expression of CPT-2 compared to control,[4]; [8],0.65
same,relative expression of UCP3 compared to untreated cells,[4]; [8],approximately 0.5
same,increase in CPT-2 expression relative to control,"[4]; 125 μM complexed with FBS, 1 day",1.5 fold
same,increase in CPT-2 expression relative to control,"[4]; 125 μM complexed with FBS, 2 days",did not result in increased expression
same,increase in CPT-2 expression relative to control,"[4]; 125 μM complexed with FBS, 4 days",did not result in increased expression
same,increase in relative expression of UCP3,"[4]; 125 μM complexed with FBS, all treatment periods (1, 2, 4 days)",did not induce any changes
"CC#CCCCCCCCCCCCNCC(=O)O [tr-N-TTA, Tetradec-12-yn-1-ylglycine hydrochloride]",Abs450 nm (WST-1 viability),"[5]; 48 hours, 0.0625 mM",0.4964
same,Abs450 nm (WST-1 viability),"[5]; 48 hours, 0.125 mM",0.1452
same,Abs450 nm (WST-1 viability),"[5]; 48 hours, 0.25 mM",0.1679
same,Abs450 nm (WST-1 viability),"[5]; 48 hours, 0.5 mM",0.2177
same,Abs450 nm (WST-1 viability),"[5]; 48 hours, 1 mM",0.2833
same,Abs450 nm (WST-1 viability),"[5]; 48 hours, 2 mM",0.5009
same,Abs450 nm (WST-1 viability),"[5]; 72 hours, 0.03125 mM",0.3769
same,Abs450 nm (WST-1 viability),"[5]; 72 hours, 0.0625 mM",0.4452
same,Abs450 nm (WST-1 viability),"[5]; 72 hours, 0.125 mM",0.13
same,Abs450 nm (WST-1 viability),"[5]; 72 hours, 0.25 mM",0.1384
same,Abs450 nm (WST-1 viability),"[5]; 72 hours, 0.5 mM",0.1964
same,Abs450 nm (WST-1 viability),"[5]; 72 hours, 1 mM",0.366
same,Abs450 nm (WST-1 viability),"[5]; 72 hours, 2 mM",0.426
same,toxicity to leukemic cells,"[5]; MOLM-13, compared with TTA and tr-TTA",toxic to leukemic cells at a lower concentration than TTA and tr-TTA
same,WST-1 activity compared to untreated cells,"[1]; 16 μM, complexed with FBS",109%
same,WST-1 activity compared to no treatment,[1]; 500 μM,~90%
same,WST-1 activity compared to untreated cells,[1]; all concentrations,around 100%
same,WST-1 activity compared to untreated cells,[2]; 500 μM,84%
same,WST-1 activity compared to untreated cells,[2]; all concentrations except 500 μM,~100%
same,LDL cholesterol (plasma),[6],reduced
same,body weight gain vs high-fat control diet,[6],significantly lower
same,cholesterol esters (plasma),[6],reduced
same,epididymal white adipose tissue depot,[6],reduced in size
same,free cholesterol (plasma),[6],reduced
same,perirenal white adipose tissue depot,[6],reduced in size
same,total cholesterol (plasma),[6],reduced
same,blood glucose vs high-fat control diet,[6]; fasting,significantly lower
